Measured values taken from BindingDB's records for doi:10.7270/Q2ZC819K (Burnham Center For Chemical Genomics, 2009).

Molecular target: Polyadenylate-binding protein 1 (Homo sapiens, UniProt P11940)
Experiment: PABP poly(A) RNA binding inhibitors, primary screen, biochemical, fluorescence polarization, uHTS (AID 2014)

Polyadenylate-binding protein 1, sequence (P11940 whole entry): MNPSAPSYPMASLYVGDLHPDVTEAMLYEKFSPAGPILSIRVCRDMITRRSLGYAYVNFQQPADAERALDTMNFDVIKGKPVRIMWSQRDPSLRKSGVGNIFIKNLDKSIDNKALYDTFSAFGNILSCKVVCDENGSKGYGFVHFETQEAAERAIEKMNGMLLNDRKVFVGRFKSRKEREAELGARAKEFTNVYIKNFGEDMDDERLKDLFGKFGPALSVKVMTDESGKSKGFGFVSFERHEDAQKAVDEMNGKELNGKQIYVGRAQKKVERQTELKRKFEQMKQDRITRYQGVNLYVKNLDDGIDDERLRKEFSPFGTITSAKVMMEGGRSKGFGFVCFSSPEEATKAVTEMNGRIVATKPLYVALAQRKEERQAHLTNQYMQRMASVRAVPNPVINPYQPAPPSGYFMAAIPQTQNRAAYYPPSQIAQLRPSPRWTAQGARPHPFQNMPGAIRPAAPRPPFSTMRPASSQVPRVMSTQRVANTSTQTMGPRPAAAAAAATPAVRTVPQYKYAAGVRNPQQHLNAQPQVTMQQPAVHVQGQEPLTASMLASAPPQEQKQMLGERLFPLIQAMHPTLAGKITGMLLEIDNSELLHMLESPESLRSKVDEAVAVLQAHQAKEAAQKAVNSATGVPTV

| Structure (SMILES) | IC50 [µM] |
| --- | --- |
| O=C(O)c1ccc(N=NCc2cc3c(cc2[N+](=O)[O-])OCO3)cc1 | 48.8 |
| COc1ccc2c(c1)=C(NNC(=O)Cc1cccs1)C(=O)N=2 | 31 |
| CCn1c(=NC(=O)c2ccc(-n3c(O)ccc3O)cc2)sc2c(OC)ccc(OC)c21 [4-[2,5-bis(oxidanylidene)pyrrolidin-1-yl]-N-(3-ethyl-4,7-dimethoxy-1,3-benzothiazol-2-ylidene)benzamide] | 100 |
| CC1(C)Oc2ccc3ccc(=O)oc3c2C(CN=O)=C1Cl [9-chloro-2-keto-8,8-dimethyl-pyrano[2,3-f]chromene-10-carbaldehyde oxime] | 10.3 |
| COc1cc(C)cc(C(=O)O)c1C1C(=O)C(=O)c2c(O)cccc2C1=O (centres undefined) [MLS000877007] | 5.41 |
| O=C1N=c2ccccc2=C1NNC(=O)c1cc(-c2cccs2)n[nH]1 [N'-(2-oxoindol-3-yl)-5-thiophen-2-yl-1H-pyrazole-3-carbohydrazide] | 28.8 |
| CC1=NC(=O)NC(c2ccco2)C1C(=O)OC(C)C (centres undefined) [SMR000120838] | 42.8 |
| COc1ccc(CN=Nc2nc(O)c(CC(=O)O)s2)cc1OCc1ccc(Cl)cc1Cl [[2-({3-[(2,4-dichlorobenzyl)oxy]-4-methoxybenzylidene}hydrazono)-4-oxo-1,3-thiazolidin-5-yl]acetic acid] | 64.3 |
| CC[N+](C)(CC)CCCC(N=O)C(O)(c1ccccc1)c1ccccc1 (centres undefined) [diethyl-(5-hydroxy-4-hydroxyimino-5,5-diphenylpentyl)-methylammonium;iodide] | 5.57 |
